Key:
Format in all cases: cell-based
Details in all cases: after 10, 20, 40 and 60 minutes at all dilutions 1:100, 1:200, 1:400, 1:800
[1] = tested on: Escherichia coli; experiment: Antimicrobial screening by agar dilution, Escherichia coli
Procedure: (§1) The antimicrobial properties of the 4-[4,5-bis(4-bromophenyl)-1-hexyl-1H-imidazol-2-yl]isoquinolin-3-ol was studied by the method of agar dilution. Test solutions of each compound was prepared in concentration of 1% using dimethylformamide as a solvent then they are diluted in physiological solution to obtain the final experimental dilutions 1:100, 1:200, 1:400, 1:800. The effect of these substances are compared with furacillin in a controlled study. The testing microbes used were gram positive bacteria Staphylococcus aureus, gram negative bacteria Pseudomonas aeruginosa and Escherichia coli and Candida albicans fungi were taken. The experiments used for this survey were meat-pentonlu agar (EPA) for cultivation of bacteria and Saburo environment for fungi. Each experiment used 1 ml of test solution on each plate 500 min. Add 2 drops of emulsified with microbes feel. All experimental samples were taken from the agar after 10, 20, 40, 60 minutes in the environment on the basis of Patrk planted. Bacteria were cultivated at a temperature of 37° C. for 1 day and the mushroom was kept in a thermostat for […] at a temperature of 28° C. in the. Then results were checked.

[2] = tested on: Pseudomonas aeruginosa; experiment: Antimicrobial screening by agar dilution, Pseudomonas aeruginosa
Procedure: as §1

[3] = tested on: Candida albicans; experiment: Antimicrobial screening by agar dilution, Candida albicans
Procedure: as §1

[4] = tested on: Staphylococcus aureus; experiment: Antimicrobial screening by agar dilution, Staphylococcus aureus
Procedure: as §1

Measured: inhibition activity (in words)

CCCCCCn1c(-c2c(O)ncc3ccccc23)nc(-c2ccc(Br)cc2)c1-c1ccc(Br)cc1 [4-[4,5-bis(4-bromophenyl)-1-hexyl-1H-imidazol-2-yl]isoquinolin-3-ol]
highest inhibition activity: all assays above

From US12180181B1, “4-[4,5-bis(4-bromophenyl)-1-hexyl-1H-imidazol-2-yl]isoquinolin-3-ol as an antimicrobial compound” (KING FAISAL UNIVERSITY, priority 2023, dated 2024)
